Series [1] deals with MDA-MB-231 breast cancer cells xenografted together with HBF1203 breast stromal cells. In words: MDA-MB-231/HBF1203 xenograft, tumor end volume after chemotherapy and/or PDK4-IN. It counts as in vivo, SCID mice. The settings on record: PDK4-IN 10.0 mg/kg combined with DOX 1.0 mg/kg i.p. On the procedure: All experimental mouse experiments were carried out in strict accordance with the relevant regulations of the Institutional Animal Care and Use Committee (IACUC), Shanghai Institutes for Biological Sciences, Chinese Academy of Sciences. Immuno-deficient mice ICR SCID mice (body weight about 25 g) aged about 6 weeks were used for animal experiments related to the present disclosure. Stromal cells PSC27 and epithelial cells were mixed at a ratio of 1:4, and each graft contained 1.25×10^6 cells for tissue remodeling. The xenograft tumors were implanted into mice by subcutaneous transplantation, and the animals were euthanized 8 weeks after the end of the transplantation surgery. Tumor volume was calculated according to the following formula: V=(π/6)×(([…])/2)^3 (V, volume; 1, length; w, width).
For pre-clinical chemotherapeutic studies, mice received subcutaneous implantation were given standard laboratory diets. […] The time points were on the first day of the third, fifth and seventh weeks, with a total of 3 cycles of treatment, and each cycle lasted for 2 weeks. After the course of treatment, mouse […] were collected for tumor measurement and histological analysis. […] In order to cause systemic expression of SASP factors induced by chemotherapy, MIT was administered to mice through intravenous infusion according to the above steps and sequence, but the dose was reduced to 0.1 mg/kg body weight/each time (the cumulative dose of MIT received in the whole course of treatment was 0.3 mg/kg body weight) to reduce drug-related toxicity. The chemotherapy experiment ended at the end of the 8th week, and the mice were dissected immediately after sacrifice, and the xenograft tumors were collected and used for pathological system analysis.
To assess the in vivo effects of chemotherapeutic drugs and/or PDK4-IN treatment in different tumor types, the inventors subsequently generated xenografts composed of breast cancer cell line MDA-MB-231 and breast stromal cell line HBF1203 to replicate the preclinical intervention observed in prostate cancer xenografts.

Series [2] has as its system mice implanted with recombinant tissues. Briefly: Survival of tumor-bearing mice in time-extended preclinical cohort (bulky disease, size >2,000 mm^3). It counts as in vivo. The settings on record: PDK4-IN treatment alone versus vehicle. The source says:
FIG. 74. Curve of bulky DFS plotted against survival time of implantation with recombinant tissues in mice until animal death attributed to advanced bulky disease development. MS, median survival. P values calculated by two-sided log-rank (Mantel-Cox) tests.
Next, the inventors assessed tumor progression consequence by comparing the survival rate of different animal groups in a time-extended preclinical cohort. During tumor surveillance, bulky disease was considered once the tumor burden became prominent (size >2,000 mm^3).

For series [3], the system named is cancer cells in tumors (PC3/PSC27 xenografts). Briefly: DNA damage and apoptosis in tumors by IHC (γ-H2AX, cleaved caspase 3). The settings on record: for DNA damage and apoptosis in cancer cells: tumors dissected 7 days after initiation of treatment. It counts as in vivo, SCID mice. The source says: FIG. 69. Statistical evaluating values of DNA-damaged cells and apoptotic cells in analyzed tumor specimens, represented as a percentage of cells positively stained by IHC with antibodies against γ-H2AX or caspase 3 (cleaved).
FIG. 70. Representative IHC images of caspase 3 (cleaved) in tumors at the end of therapeutic regimens. Biopsies of placebo-treated animals served as negative controls for drug-treated mice. Scale bar, 100 μm.
Considering the primary in vivo expressive results with MIT and/or PDK4-IN treatment, the inventors next asked how pharmacologically targeting PDK4 could enhance the therapeutic response of tumors. To disclose the possible mechanism(s), the inventors chose to dissect tumors from animals 7 days after initiation of treatment, a timepoint right before the development of resistant colonies.

In series [4] the test system is mice with natural senescence. In words: PDK4-IN intervention in naturally aged mice: tissue senescence, physical function, serum markers. It counts as in vivo, C57BL/6J mice. Here is the method: FIG. 83. Schematic design of 20-month-old C57BL/6J mice undergoing either placebo or PDK4-IN intervention.
All testing began on day 5 after the last placebo or drug treatment. Maximum walking speed was assessed using the accelerated RotaRod System (TSE System, Chesterfiled, MO). The mice were trained on the RotaRod for 3 days at speeds of 4, 6 and 8 r.p.m, lasted for 200 seconds on the 1st, 2nd and 3rd days. On the test day, the mice were placed on the RotaRod, and the test was performed starting at a speed of 4 r.p.m. The rotation speed was accelerated from 4 to 40 r.p.m at intervals of 5 minutes. When the mice fell off the RotaRod, the speed was recorded. The final results were averaged from 3 or 4 trials and normalized to baseline speed. The mice that had been trained within the previous two months were no longer trained.
Forelimb grip strength (N) was measured using a Grip Strength Meter (Columbus Instruments, Columbus, OH), and the results were averaged from more than 10 trials. For the hanging endurance test, the mice were placed on a 2 mm thick metal wire, while the later was 35 cm above a mat. The mice were only allowed to grasp the wire with their forelimbs, and the hang time was normalized to body weight and expressed as hang duration (sec)×body weight (g). The results were the average of 2 to 3 trials per mouse. Their daily activity and food intake were monitored for 24 h (12 hours of light and 12 hours of dark) by a Comprehensive Laboratory Animal Monitoring System (CLAMS). The CLAMS system was equipped with an Oxymax Open Circuit Calorimeter System (Columbus Instruments). For treadmill performance, the mice were acclimatized to run on an electric running machine (Columbus Instruments) at a 5° incline, for 3 days of training, lasted for 5 minutes each day, started at a speed of 5 m/min for 2 minutes, then accelerated to 7 m/min for 2 minutes, then 9 m/min for 1 minute. On the day of the test, the mice ran on the treadmill at an initial speed of 5 m/min for 2 min, and then the speed increased by 2 m/min every 2 min until the mice were exhausted. Fatigue was defined as the inability of mice to return to the treadmill despite mild electrical and mechanical stimulation. The distance was recorded after the test, and the total work (KJ) was calculated with the following formula: mass (kg)×g (9.8 m/s2)×distance (m)×sin (5°).
With the increasing global senescent trend in recent years, drugs that can effectively alleviate the senescent process have become a common interest among scientists and pharmaceutical companies worldwide. The inventors queried whether manipulation of PDK4 activities can control various senescence-associated phenotypes. Therefore, the inventors chose to treat normal 20-month-old wild-type mice with PDK4-IN (PDK4-IN 10 mg/kg via intraperitoneal injection once every 2 weeks) for 4 months, after which physical function or physical ability was experimentally determined in mice with natural senescence (FIG. 83).

Setting [5] is: 20-month-old mice, PDK4-IN 10 mg/kg i.p. once every 2 weeks for 4 months.

As for `O=C1c2ccccc2C(=O)c2c1cccc2-c1cnn(C2CCNCC2)c1` [PDK4-IN], in series [1], the “further decline of tumor volume on the basis of doxorubicin (DOX)” value is given as 39.8% and the “tumor size reduction in total compared to the control group” value worked out at 69.5%. Also, in series [2], the “survival benefit as single agent” value is “only marginal survival advantage”. Further, the “caspase 3 cleavage (IHC)” value in series [3] (PDK4-IN added to MIT) is “further enhanced”. The “DNA damage and apoptosis in cancer cells” value in series [3] (PDK4-IN upon combination with MIT) is on record as “prominent efficacy in enhancing these therapeutic indices”. Besides, the “DNA damage and apoptosis in cancer cells” value in series [3] (single agent) is recorded as “neither caused typical DDR nor induced cell apoptosis”. In addition, in series [4] (setting [5]), the “SA-β-gal positivity in liver, lung, prostate and myocardial tissues of aged animals” value is given as “partially reversed”; the “age-dependent expansion of alveoli” value is on record as “effectively controlled”; the grip strength entry is “significantly improved”; the motor skills entry is “significantly improved”. In addition, the serum lactate levels result in series [4] (aged animals receiving PDK4-IN treatment) was “significant reduction”. In addition, in series [4] (aged mice treated with PDK4-IN), the “age-related elevation of serum alanine aminotransferase (ALT)” value is on record as “significantly avoided these changes”, the “age-related elevation of serum aspartate aminotransferase (AST)” value was “significantly avoided these changes”, the “age-related elevation of serum lactate dehydrogenase (LDH)” value is given as “significantly avoided these changes” and the body weight entry is given as “essentially unaffected”. Besides, the food intake entry in series [4] (aged mice treated with PDK4-IN) is reported as “essentially unaffected”.

The values above are taken from patent US20260137671A1, “PDK4 as a Cell-Aging Intervention Target and Its Use in Chemotherapy and Anticancer” (Shanghai Institute of Nutrition and Health, Chinese Academy …, priority 2022, published 2026).
